“Also recorded” adds a separate entry of the source. Where a SMILES comes first, the peptide text is derived from it.
Tests used:
[1] = tested on: Schgr-sNPFR; assay: cAMP assay, CRE-luciferase bioluminescence in HEK-293T-Schgr-sNPFR cells; assay type: cell-based, Schistocerca gregaria; conditions: HEK 293T cells; for IC50: 200 µM IBMX + NKH 477, 3 h at 37°C, three independent measurements in duplicate, read-out: IC50 (inhibition of CRE-luciferase reporter expression); for inhibition of the reporter expression (result in words): CRE-luciferase, 200 µM IBMX + NKH 477
Experimental: (§1) Three cell lines were used in this study. General receptor studies were performed in Chinese Hamster Ovary (CHO)-WTA11 cells, a clone of CHO cells stably coexpressing the promiscuous Gα16 and apoaequorin. To determine the mode of downstream signalling, we used either CHO-PAM28 cells, a clone of CHO cells expressing apoaequorin but not the promiscuous Gα16, or Human Embryonic Kidney (HEK) 293T cells, expressing neither Gα16 nor apoaequorin. All cell lines used in this study were provided by Prof. Dr. M. Parmentier and Dr. M. Dethreux (Université Libre de Bruxelles) and Euroscreen S.A., Belgium.
(§2) The cells were cultured in monolayer, in Dulbecco’s Modified Eagle Medium Nutrient Mixture F12-Ham (DMEM/F12, Invitrogen) containing 10% fetal calf serum (Invitrogen), 100 IU/ml penicillin/streptomycin (Invitrogen). For the CHO-WTA11 cells, 250 µg/ml Zeocin™ (Invitrogen) was added to the medium, while to the medium of CHO-PAM28 cells, 5 µg/ml Puromycin (Invitrogen) was added. The cells were grown at 37°C, with a constant supply of 5% CO2 and split every 3 days.
(§3) Transfections with either Schgr-sNPFR/pcDNA3.1D or empty pcDNA3.1D vector were performed in T75 flasks at ca. 60% confluency. Transfection reagent was prepared by combining 2,5 ml of DMEM/F12, 5 µg of the plasmid DNA and 12.5 µl of PLUS™ Reagent (Invitrogen). After storing the medium at room temperature for 5 minutes, 30 µl Lipofectamine™ LTX (Invitrogen) was added and the transfection medium was added dropwise into 3 ml of culture medium after 30 minutes incubation at room temperature. HEK 293T cells were cotransfected with a reporter construct, consisting of a luciferase gene situated downstream of a cyclic AMP (cAMP) response element (CRE) and promoter.
HEK 293T cells, cotransfected with the Schgr-sNPFR/pcDNA3.1 vector and the CRE-luciferase construct, were detached two days after transfection, centrifuged and resuspended to a concentration of 10^6 cells/ml in DMEM/F12 containing 200 µM 3-isobutyl-1-methylxanthine (IBMX; Sigma-Aldrich). Fifty µl of this suspension was introduced into in each well of a 96-well-plate. When studying stimulatory effects, peptides were dissolved in DMEM/F12 containing 200 µM IBMX. When studying inhibitory effects, these peptides were dissoved in DMEM/F12 supplemented with 200 µM IBMX and 20 µM NKH 477 (a water-soluble analogue of forskolin; Sigma-Aldrich). […] Light emission, resulting from the luciferase activity, was measured for 5 s/well using the Mithras LB 940 Microplate Reader.
(§4) Data generated in these experiments were analysed using GraphPad Prism 5 (GraphPad Software).
The possible effect of receptor activation on intracellular cyclic AMP (cAMP) production was analysed in HEK 293T cells that were cotransfected with a CRE-luciferase reporter construct.

[2] = tested on: Schgr-sNPFR; assay: Calcium assay, aequorin bioluminescence in CHO-WTA11-Schgr-sNPFR cells (promiscuous Gα16); assay type: cell-based, Schistocerca gregaria; conditions: for EC50: CHO-WTA11 cells with Gα16, aequorin/coelenterazine h luminescence, 30 s read, ± (95% confidence interval), three independent measurements in duplicate
Experimental: as §1, §2
Transfections with either Schgr-sNPFR/pcDNA3.1D or empty pcDNA3.1D vector were performed in T75 flasks at ca. 60% confluency. […]
In the calcium-assays, CHO-WTA11 or CHO-PAM28 cells expressing the Schgr-sNPFR were detached two days after transfection, counted using the NucleoCounter® NC-100™ (Chemometec), and resuspended in DMEM/BSA (DMEM/F12, 10 mM HEPES, 0.1% bovine serum albumin) at a concentration of 5×10^5 cells/ml. […]
After incubation, the cell suspension was injected in wells containing a peptide solution, dissolved in 50 µl BSA medium. […] Light emission was monitored using a Mithras LB 940 Microplate Reader (Berthold technologies).
as §4
As putative ligands for the cloned Schistocerca gregaria sNPF receptor, Schgr-sNPF (SNRSPSLRLRFa), Schgr-sNPF^4−11 (SPSLRLRFa) and Schgr-trNPF (YSQVARPRFa) were tested. […] For each of these peptides, the dose-dependent activation of the Schgr-sNPFR was studied in CHO-WTA11 cells and EC50 values were calculated.

[3] = tested on: Schgr-sNPFR; assay: Calcium assay, aequorin bioluminescence in CHO-PAM28-Schgr-sNPFR cells (no Gα16); assay type: cell-based, Schistocerca gregaria; conditions: for EC50: CHO-PAM28 cells without Gα16, aequorin bioluminescence, three independent measurements in duplicate; for maximum response (aequorin bioluminescence): Schgr-sNPF and Schgr-sNPF^4−11 compared with each other
Experimental: as §1, §2, §3
In the calcium-assays, CHO-WTA11 or CHO-PAM28 cells expressing the Schgr-sNPFR were detached two days after transfection, counted using the NucleoCounter® NC-100™ (Chemometec), and resuspended in DMEM/BSA (DMEM/F12, 10 mM HEPES, 0.1% bovine serum albumin) at a concentration of 5×10^5 cells/ml. Cells where then shielded from light and incubated for 4 h with 5 µM coelenterazine h (Invitrogen), allowing the aequorin holoenzyme to be reconstituted.
After incubation, the cell suspension was injected in wells containing a peptide solution, dissolved in 50 µl BSA medium. After 30 s, 50 µl of 0.1% Triton X-100 was injected, lysing the cells and thus serving as an internal reference. Wells containing no peptide but DMEM/BSA were used as a negative control while wells containing 1 µM ATP were used as a positive control. Light emission was monitored using a Mithras LB 940 Microplate Reader (Berthold technologies).
as §4
These two peptides were then further studied with respect to their mode of intracellular signalling. Cell based assays were performed using a CHO-PAM28 cell line, expressing apoaequorin, allowing the detection of increases in the intracellular concentration of calcium ions. […] The calculated EC50 values were both in the nanomolar range.

[4] = tested on: adult locusts; assay: Peptide injection feeding assay (food uptake); assay type: in vivo, Schistocerca gregaria; conditions: for reduction of food uptake: 2 µl of 100 µg/ml injected dorsally, cabbage for one hour, vs saline, n = 20; for effect on food uptake (result in words): normalized to body mass, mean, n = 20, ANOVA with Tukey
Experimental: The desert locusts used in this study were all gregarious adult animals. They were reared under crowded conditions at a constant temperature (32±1°C) and photoperiod (14 h). The locusts were kept at high density (>200 locusts per cage) and fed daily with cabbage and dry oat flakes. In an effort to normalize feeding responses, locusts used in feeding experiments were placed in separate cages and placed on a controlled dietary regimen one week prior to the assay. Locusts were fed for two hours each day (9 h–10 h, 16 h–17 h).
At 9 AM, 2 µl of a 100 µg/ml peptide solution (experimental condition) or saline solution (negative control) was injected dorsally between the first and second abdominal segments using a 710 RN injector (Hamilton). Pieces of cabbage were weighed in advance and presented to the locusts for one hour, after which all animals had stopped feeding. In parallel, similar pieces of cabbage were put in empty cages during the period of the experiment. The relative weight loss of these pieces was used to estimate the effect of evaporation All cabbage leafs were weighed after the feeding assay, total food uptake was calculated and corrected for the weight that was lost by evaporation. The results were analysed using GraphPad Prism 5 (GraphPad Software).

Compound | IC50 [1] | inhibition of the reporter expression (result in words) [1] | EC50 [2] | increase of aequorin bioluminescence ([3]; CHO-PAM28 cells) | EC50 [3] | maximum response (aequorin bioluminescence) ([3]; CHO-PAM28 cells) | reduction of food uptake [4] | effect on food uptake (result in words) ([4]; ** p<0.01, *** p<0.001) | effect on food uptake (result in words) ([4]; ** p<0.01, *** p<0.001, listed as sNPF^4−11) | agonist character with respect to calcium response ([3]; CHO-PAM28 cells, maximum response lower than that of Schgr-sNPF^4−11) | effect on food uptake (result in words) ([4]; ** p<0.01, *** p<0.001, listed as sNPF) | activation of the receptor (result in words) ([2]; CHO-WTA11 cells, aequorin bioluminescence)
CC(C)C[C@H](NC(=O)[C@H](CCCNC(=N)N)NC(=O)[C@H](CC(C)C)NC(=O)[C@H](CO)NC(=O)[C@@H]1CCCN1C(=O)[C@@H](N)CO)C(=O)N[C@@H](CCCNC(=N)N)C(=O)N[C@@H](Cc1ccccc1)C(N)=O [Schgr-sNPF^4−11] (H-SPSLRLRF-NH2) | 0.0955 ± 0.0323 nM | highly effective | 5.56 ± 1.8 nM | dose-dependent increase of aequorin bioluminescence | 32.2 ± 18.2 nM | markedly higher than those obtained with Schgr-sNPF | 37% | significant decrease of food uptake | significant decrease in food uptake |  |  | 
SNRSPSLRLRFa [Schgr-sNPF, Schistocerca gregaria short neuropeptide F, […]a] | 0.0763 ± 0.0261 nM | highly effective | 2.05 ± 0.63 nM | dose-dependent increase of aequorin bioluminescence | 3.28 ± 2.2 nM | markedly lower than that of Schgr-sNPF^4−11 | 30% | significant decrease of food uptake |  | partial agonist | significant decrease in food uptake | 
YSQVARPRFa [Schgr-trNPF, truncated form of Schgr-neuropeptide F, …a] |  |  |  |  |  |  |  |  |  |  |  | No dose-dependent response was observed; also recorded: not responsive
